Laboratory results published in US8940897B2, “1,3,4-oxadiazole and 1,3,4-thiadiazole β-lactamase inhibitors” (priority 2012, dated 2015).
Structures can show the parent of a compound that is named as a salt.

Columns and labels:
[1] = system: bacterial strains that express KPC β-lactamases; test: Synergy MIC / standard BLI potentiation MIC assay, strains expressing KPC β-lactamases; type: cell-based; conditions: for at least one KPC strain and/or a better spectrum of activity against KPC strains than Avibactam; in the presence of a β-lactam
Method: (§1) Unless otherwise indicated, the activity of the BLI compounds can be described by the MIC value obtained from a Synergy MIC assay or a BLI potentiation assay (e.g as described herein), both of which are run in the presence of a β-lactam.
(§2) The experimental protocol was performed according to Clinical and Laboratory Standards Institute (CLSI) guidelines with modifications as described below (CLSI guidelines can be derived from the CLSI document M07-A9 published in January 2012: “Methods for Dilution Antimicrobial Susceptibility Tests for Bacteria That Grow Aerobically; Approved Standard-Ninth Edition”).
(§3) To prepare for MIC testing, frozen glycerol stocks of clinical isolates (Klebsiella pneumoniae, Eschericia coli, Enterobacter spp, Citrobacter spp, or Pseudomonas aeruginosa) were used to streak for isolated colonies on rich, non-selective, tryptic soy agar containing 5% sheep's blood (TSAB). Frozen glycerol stocks of laboratory engineered, isogenic E. coli strains, which contain cloned β-lactamase expressing plasmids were used to streak for isolated colonies on rich, selective LB agar supplemented with 25 μg/mL tetracycline to maintain the plasmid. All strains were incubated at 37° C. for 18-24 hrs.
(§4) On the day of testing, primary cultures were started by scraping off 5-10 colonies from the TSAB plates containing clinical strains or the tetracycline supplemented LB plates containing engineered strains. The clinical strain material was suspended in ˜5 mL of cation adjusted Mueller Hinton Broth (CAMHB) in 14 mL culture tubes. The engineered strain material was suspended in CAMHB (supplemented with 25 μg/mL tetracycline) in 14 mL culture tubes. All strains were incubated at 37° C. with aeration (200 rpm) for ˜2 hrs until the optical density at 600 nm (OD600) was ≧0.1.
(§5) The two compound components of the assay were each diluted in CAMHB and added to the 96-well broth microdilution assay plates. 50 μL of the β-lactam was added to each well of the assay plate in 2-fold dilutions with final concentrations ranging from 128 to 0.13 μg/mL. 25 μL of the BLI compound was added to all wells in the broth microdilution plates at a final concentration of 4 μg/mL. Inoculum cultures were prepared by standardizing the primary cultures to OD600=0.1 and then adding 20 μL of the adjusted primary culture per 1 mL CAMHB for clinical strains or CAMHB (supplemented with tetracycline at 100 μg/mL) for engineered strains, so that the final inoculum density was ˜10^5 colony forming units per milliliter. Diluted inoculum cultures were used to inoculate 25 μl, per well in 96-well broth microdilution assay plates. The final volume of each well was 100 μL and contained a β-lactam at different concentrations, a BLIcompound at 4 μg/mL concentration, the bacterial culture at an OD600 of approximately 0.001 and when necessary tetracycline at 25 μg/mL.
(§6) Plates were incubated for 18-20 hours at 37° C. with aeration (200 rpm). Following incubation, growth was confirmed visually placing plates over a viewing apparatus (stand with a mirror underneath) and then OD600 was measured using a SpectraMax 340PC384 plate reader (Molecular Devices, Sunnyvale, Calif.). Growth was defined as turbidity that could be detected with the naked eye or achieving minimum OD600 of 0.1. MIC values were defined as the lowest concentration producing no visible turbidity.
(§7) The synergy MIC (sMIC) assay determines the concentration of the BLI required to potentiate the activity of a fixed concentration of a β-lactam antibiotic against β-lactamase producing bacterial strains. The experimental protocol was performed according to Clinical and Laboratory Standards Institute (CLSI) guidelines with modifications as described below (CLSI guidelines can be derived from the CLSI document M07-A9 published in January 2012: “Methods for Dilution Antimicrobial Susceptibility Tests for Bacteria That Grow Aerobically; Approved Standard-Ninth Edition”). […]

[2] = system: bacterial strains that express the class D cephalosporinase OXA-15; test: Synergy MIC / standard BLI potentiation MIC assay, strains expressing OXA-15;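 note: more active means a lower MIC or sMIC than Avibactam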; type: cell-based, E. coli; conditions: in the presence of a β-lactam; comparator Avibactam (CCC)
Method: as §1, §2, §3, §4, §5, §6, §7

With N=C(N)N1CC(NCc2nnc([C@@H]3CC[C@@H]4CN3C(=O)N4OS(=O)(=O)O)o2)C1 [Compound 746, (2S,5R)-2-(5-(((1-carbamimidoylazetidin-3-yl)amino)methyl)-1,3,4-oxadiazol-2-yl)-7-oxo-1,6-diazabicyclo[3.2.1]octan-6-yl hydrogen sulfate] the “activity against bacterial strains that express KPC β-lactamase compared with Avibactam” value [1] was “more active than Avibactam” and the “activity against bacterial strains that express OXA-15 β-lactamase compared with Avibactam” value [2] was “more active than Avibactam”.
In the case of O=C1N2C[C@@H](CC[C@H]2c2nnc(C3CCNCC3)o2)N1OS(=O)(=O)O [Compound 711, (2S,5R)-7-oxo-2-(5-(piperidin-4-yl)-1,3,4-oxadiazol-2-yl)-1,6-diazabicyclo[3.2.1]octan-6-yl hydrogen sulfate], the “activity against bacterial strains that express KPC β-lactamase compared with Avibactam” value [1] is reported as “more active than Avibactam” and the “activity against bacterial strains that express OXA-15 β-lactamase compared with Avibactam” value [2] is reported as “more active than Avibactam”.
With O=C1N2C[C@@H](CC[C@H]2c2nnc(CN[C@H]3CCNC3)o2)N1OS(=O)(=O)O [Compound 765, (2S,5R)-7-oxo-2-(5-(((S)-pyrrolidin-3-ylamino)methyl)-1,3,4-oxadiazol-2-yl)-1,6-diazabicyclo[3.2.1]octan-6-yl hydrogen sulfate] the “activity against bacterial strains that express KPC β-lactamase compared with Avibactam” value [1] was “more active than Avibactam” and the “activity against bacterial strains that express OXA-15 β-lactamase compared with Avibactam” value [2] was “more active than Avibactam”.
With NC1(Cc2nnc([C@@H]3CC[C@@H]4CN3C(=O)N4OS(=O)(=O)O)o2)CC1 [Compound 724, (2S,5R)-2-(5-((1-aminocyclopropyl)methyl)-1,3,4-oxadiazol-2-yl)-7-oxo-1,6-diazabicyclo[3.2.1]octan-6-yl hydrogen sulfate] the “activity against bacterial strains that express KPC β-lactamase compared with Avibactam” value [1] was “more active than Avibactam” and the “activity against bacterial strains that express OXA-15 β-lactamase compared with Avibactam” value [2] was “more active than Avibactam”.
O=C1N2C[C@@H](CC[C@H]2c2nnc(CCC3CNC3)o2)N1OS(=O)(=O)O [Compound 742, (2S,5R)-2-(5-(2-(azetidin-3-yl)ethyl)-1,3,4-oxadiazol-2-yl)-7-oxo-1,6-diazabicyclo[3.2.1]octan-6-yl hydrogen sulfate] was tested, and the “activity against bacterial strains that express KPC β-lactamase compared with Avibactam” value [1] was “more active than Avibactam” and the “activity against bacterial strains that express OXA-15 β-lactamase compared with Avibactam” value [2] was “more active than Avibactam”.
O=C1N2C[C@@H](CC[C@H]2c2nnc([C@H]3[C@@H]4CNC[C@@H]43)o2)N1OS(=O)(=O)O [Compound 740, (2S,5R)-2-(5-(3-azabicyclo[3.1.0]hexan-6-yl)-1,3,4-oxadiazol-2-yl)-7-oxo-1,6-diazabicyclo[3.2.1]octan-6-yl hydrogen sulfate] was tested, and the “activity against bacterial strains that express KPC β-lactamase compared with Avibactam” value [1] was “more active than Avibactam” and the “activity against bacterial strains that express OXA-15 β-lactamase compared with Avibactam” value [2] was “more active than Avibactam”.
O=C1N2C[C@@H](CC[C@H]2c2nnc(CN3CCNCC3)o2)N1OS(=O)(=O)O [Compound 777, (2S,5R)-7-oxo-2-(5-(piperazin-1-ylmethyl)-1,3,4-oxadiazol-2-yl)-1,6-diazabicyclo[3.2.1]octan-6-yl hydrogen sulfate] was tested, and the “activity against bacterial strains that express KPC β-lactamase compared with Avibactam” value [1] was “more active than Avibactam” and the “activity against bacterial strains that express OXA-15 β-lactamase compared with Avibactam” value [2] was “more active than Avibactam”.
N[C@H]1C[C@@H](NCc2nnc([C@@H]3CC[C@@H]4CN3C(=O)N4OS(=O)(=O)O)o2)C1 [Compound 756, (2S,5R)-2-(5-((((1s,3R)-3-aminocyclobutyl)amino)methyl)-1,3,4-oxadiazol-2-yl)-7-oxo-1,6-diazabicyclo[3.2.1]octan-6-yl hydrogen sulfate] was tested, and the “activity against bacterial strains that express KPC β-lactamase compared with Avibactam” value [1] was “more active than Avibactam” and the “activity against bacterial strains that express OXA-15 β-lactamase compared with Avibactam” value [2] was “more active than Avibactam”.
For NCCCCc1nnc([C@@H]2CC[C@@H]3CN2C(=O)N3OS(=O)(=O)O)o1 [Compound 735, (2S,5R)-2-(5-(4-aminobutyl)-1,3,4-oxadiazol-2-yl)-7-oxo-1,6-diazabicyclo[3.2.1]octan-6-yl hydrogen sulfate], the “activity against bacterial strains that express KPC β-lactamase compared with Avibactam” value [1] was “more active than Avibactam” and the “activity against bacterial strains that express OXA-15 β-lactamase compared with Avibactam” value [2] was “more active than Avibactam”.
With N[C@H]1C[C@H](CCc2nnc([C@@H]3CC[C@@H]4CN3C(=O)N4OS(=O)(=O)O)o2)C1 [Compound 753, (2S,5R)-2-(5-(2-((1r,3R)-3-aminocyclobutyl)ethyl)-1,3,4-oxadiazol-2-yl)-7-oxo-1,6-diazabicyclo[3.2.1]octan-6-yl hydrogen sulfate] the “activity against bacterial strains that express KPC β-lactamase compared with Avibactam” value [1] was “more active than Avibactam” and the “activity against bacterial strains that express OXA-15 β-lactamase compared with Avibactam” value [2] was “more active than Avibactam”.
In the case of NCCc1nnc([C@@H]2CC[C@@H]3CN2C(=O)N3OS(=O)(=O)O)o1 [Compound 703, (2S,5R)-2-(5-(2-aminoethyl)-1,3,4-oxadiazol-2-yl)-7-oxo-1,6-diazabicyclo[3.2.1]octan-6-yl hydrogen sulfate], the “activity against bacterial strains that express KPC β-lactamase compared with Avibactam” value [1] is reported as “more active than Avibactam” and the “activity against bacterial strains that express OXA-15 β-lactamase compared with Avibactam” value [2] is reported as “more active than Avibactam”.
For N[C@H]1C[C@H](Cc2nnc([C@@H]3CC[C@@H]4CN3C(=O)N4OS(=O)(=O)O)o2)C1 [Compound 751, (2S,5R)-2-(5-(((1r,3S)-3-aminocyclobutyl)methyl)-1,3,4-oxadiazol-2-yl)-7-oxo-1,6-diazabicyclo[3.2.1]octan-6-yl hydrogen sulfate], the “activity against bacterial strains that express KPC β-lactamase compared with Avibactam” value [1] was “more active than Avibactam” and the “activity against bacterial strains that express OXA-15 β-lactamase compared with Avibactam” value [2] was “more active than Avibactam”.
With N=C(N)NC1CC(Cc2nnc([C@@H]3CC[C@@H]4CN3C(=O)N4OS(=O)(=O)O)o2)C1 (stereo partly drawn) [Compound 752, (2S,5R)-2-(5-((3-guanidinocyclobutyl)methyl)-1,3,4-oxadiazol-2-yl)-7-oxo-1,6-diazabicyclo[3.2.1]octan-6-yl hydrogen sulfate] the “activity against bacterial strains that express KPC β-lactamase compared with Avibactam” value [1] was “more active than Avibactam” and the “activity against bacterial strains that express OXA-15 β-lactamase compared with Avibactam” value [2] was “more active than Avibactam”.
In the case of O=C1N2C[C@@H](CC[C@H]2c2nnc(CNC3CNC3)o2)N1OS(=O)(=O)O [Compound 726, (2S,5R)-2-(5-((azetidin-3-ylamino)methyl)-1,3,4-oxadiazol-2-yl)-7-oxo-1,6-diazabicyclo[3.2.1]octan-6-yl hydrogen sulfate], the “activity against bacterial strains that express KPC β-lactamase compared with Avibactam” value [1] is reported as “more active than Avibactam” and the “activity against bacterial strains that express OXA-15 β-lactamase compared with Avibactam” value [2] is reported as “more active than Avibactam”.
For N[C@H]1CN[C@H](c2nnc([C@@H]3CC[C@@H]4CN3C(=O)N4OS(=O)(=O)O)o2)C1 [Compound 762, (2S,5R)-2-(5-((2S,4R)-4-aminopyrrolidin-2-yl)-1,3,4-oxadiazol-2-yl)-7-oxo-1,6-diazabicyclo[3.2.1]octan-6-yl hydrogen sulfate], the “activity against bacterial strains that express KPC β-lactamase compared with Avibactam” value [1] was “more active than Avibactam” and the “activity against bacterial strains that express OXA-15 β-lactamase compared with Avibactam” value [2] was “more active than Avibactam”.
For O=C1N2C[C@@H](CC[C@H]2c2nnc(CC3CCNC3)o2)N1OS(=O)(=O)O (stereo partly drawn) [Compound 764, (2S,5R)-7-oxo-2-(5-(pyrrolidin-3-ylmethyl)-1,3,4-oxadiazol-2-yl)-1,6-diazabicyclo[3.2.1]octan-6-yl hydrogen sulfate], the “activity against bacterial strains that express KPC β-lactamase compared with Avibactam” value [1] was “more active than Avibactam” and the “activity against bacterial strains that express OXA-15 β-lactamase compared with Avibactam” value [2] was “more active than Avibactam”.
